Where “and” joins values, the source holds several entries; their conditions need not be identical. Equal entries are not always repeated. Toxic doses and inconclusive results are not listed.
Test system: BDF1 mice, P388 leukemia ip, median survival T/C
Experiment: NCI In Vivo Anticancer Drug Screen. Data for tumor model P388 Leukemia (intraperitoneal) in B6D2F1 (BDF1) mice
Conditions: endpoint: median survival time, higher = longer survival
In short: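 Mice carrying the transplantable tumour receive compound or vehicle. Survival is followed in each arm, and the treated measure is divided by the vehicle measure.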

[1] = dose: 25.0 mg/kg/injection, schedule: Q01DX009 (ip), vehicle: Klucel (hydroxypropylcellulose) (HPC)
[2] = dose: 50.0 mg/kg/injection, schedule: Q01DX009 (ip), vehicle: Klucel (hydroxypropylcellulose) (HPC)
[3] = dose: 100.0 mg/kg/injection, schedule: Q01DX001 (ip), vehicle: saline with Tween-80
[4] = dose: 100.0 mg/kg/injection, schedule: Q01DX009 (ip), vehicle: Klucel (hydroxypropylcellulose) (HPC)
[5] = dose: 100.0 mg/kg/injection, schedule: Q01DX009 (ip), vehicle: saline with Tween-80
[6] = dose: 200.0 mg/kg/injection, schedule: Q01DX001 (ip), vehicle: saline with Tween-80
[7] = dose: 200.0 mg/kg/injection, schedule: Q01DX009 (ip), vehicle: Klucel (hydroxypropylcellulose) (HPC)
[8] = dose: 400.0 mg/kg/injection, schedule: Q01DX001 (ip), vehicle: saline with Tween-80
[9] = dose: 100.0 mg/kg/injection, schedule: Q04DX003 (ip), vehicle: saline with Tween-80
[10] = dose: 200.0 mg/kg/injection, schedule: Q04DX003 (ip), vehicle: saline with Tween-80
[11] = dose: 400.0 mg/kg/injection, schedule: Q04DX003 (ip), vehicle: saline with Tween-80
[12] = dose: 50.0 mg/kg/injection, schedule: Q01DX009 (ip), vehicle: saline with Tween-80
[13] = dose: 200.0 mg/kg/injection, schedule: Q01DX009 (ip), vehicle: saline with Tween-80
[14] = dose: 25.0 mg/kg/injection, schedule: Q04DX003 (ip), vehicle: Klucel (hydroxypropylcellulose) (HPC)
[15] = dose: 50.0 mg/kg/injection, schedule: Q04DX003 (ip), vehicle: Klucel (hydroxypropylcellulose) (HPC)
[16] = dose: 100.0 mg/kg/injection, schedule: Q04DX003 (ip), vehicle: Klucel (hydroxypropylcellulose) (HPC)
[17] = dose: 200.0 mg/kg/injection, schedule: Q04DX003 (ip), vehicle: Klucel (hydroxypropylcellulose) (HPC)

CNC(=S)N/N=C(\C)CSC/C(C)=N/NC(=S)NC
T/C (dose: 7.5 mg/kg/injection, schedule: Q01DX009 (ip), vehicle: saline with Tween-80): 102 % of control
T/C (dose: 15.0 mg/kg/injection, schedule: Q01DX009 (ip), vehicle: saline with Tween-80): 99 % of control and 122 % of control
T/C (dose: 30.0 mg/kg/injection, schedule: Q01DX009 (ip), vehicle: saline with Tween-80): 102 % of control and 124 % of control
T/C (dose: 60.0 mg/kg/injection, schedule: Q01DX009 (ip), vehicle: saline with Tween-80): 92 % of control

C/C(=C\COc1ccc2ccc(=O)oc2c1)C1=CC(=O)C(C)(C)O1
T/C [1]: 93 % of control
T/C [2]: 94 % of control
T/C [3]: 100 % of control
T/C [4]: 87 % of control
T/C [5]: 115 % of control
T/C [6]: 103 % of control
T/C [7]: 95 % of control
T/C [8]: 100 % of control

O=c1oc(/C=C/c2ccccc2)nc2cc(Cl)ccc12
T/C [9]: 100 % of control
T/C [10]: 109 % of control
T/C [11]: 100 % of control

C#CC(O)C(CC)CCCC (stereo not given)
T/C [9]: 100 % of control
T/C [10]: 100 % of control
T/C [11]: 100 % of control

OCc1cc(Cl)ccc1O
T/C [2]: 101 % of control
T/C [4]: 103 % of control
T/C (dose: 100.0 mg/kg/injection, schedule: Q04DX003 (ip), vehicle: other): 100 % of control
T/C (dose: 132.0 mg/kg/injection, schedule: Q04DX003 (ip), vehicle: other): 95 % of control
T/C [7]: 110 % of control
T/C (dose: 300.0 mg/kg/injection, schedule: Q04DX003 (ip), vehicle: other): 108 % of control
T/C (dose: 400.0 mg/kg/injection, schedule: Q04DX003 (ip), vehicle: other): 109 % of control

FC(F)c1nc2nc(Cl)c(Cl)nc2[nH]1
T/C (dose: 12.5 mg/kg/injection, schedule: Q01DX009 (ip), vehicle: saline with Tween-80): 110 % of control
T/C [12]: 120 % of control
T/C (dose: 50.0 mg/kg/injection, schedule: Q04DX003 (ip), vehicle: saline with Tween-80): 100 % of control
T/C (dose: 75.0 mg/kg/injection, schedule: Q01DX009 (ip), vehicle: saline with Tween-80): 103 % of control
T/C [9]: 109 % of control

Cc1cccc(NC2=C(C#N)C(=O)NC3(CCCC3)S2)c1
T/C [12]: 119 % of control
T/C [5]: 103 % of control
T/C [13]: 100 % of control

CS(=O)(=O)CCN(N=O)C(=N)N[N+](=O)[O-]
T/C (dose: 19.0 mg/kg/injection, schedule: Q04DX003 (ip), vehicle: saline with Tween-80): 113 % of control
T/C (dose: 150.0 mg/kg/injection, schedule: Q04DX003 (ip), vehicle: saline with Tween-80): 150 % of control

CCCNCCC(O)c1cc(C(F)(F)F)nc2c(C(F)(F)F)cccc12 (stereo not given)
T/C (dose: 25.0 mg/kg/injection, schedule: Q01DX009 (ip), vehicle: saline with Tween-80): 103 % of control
T/C [12]: 111 % of control and 124 % of control
T/C [5]: 111 % of control

COc1cc2c(cc1OC)C(CNC(=O)/C=C/c1cc(OC)c(OC)c(OC)c1)C2 (stereo not given)
T/C [12]: 98 % of control
T/C [5]: 107 % of control
T/C [13]: 88 % of control

COC(=O)C1c2cc3c(cc2C(OC2OC(C)C(OC)C(C)(OC)C2OC)CC1(C)O)C(=O)c1c(O)cc2c(c1C3=O)OC1OC2(C)C(O)C([N+](C)(C)[O-])C1O (stereo not given)
T/C (dose: 3.13 mg/kg/injection, schedule: Q01DX010 (ip), vehicle: saline): 150 % of control
T/C (dose: 6.25 mg/kg/injection, schedule: Q01DX010 (ip), vehicle: saline): 165 % of control
T/C (dose: 12.5 mg/kg/injection, schedule: Q01DX010 (ip), vehicle: saline): 95 % of control

COC1(c2cccs2)OC1(C)C (stereo not given)
T/C [5]: 95 % of control
T/C [9]: 100 % of control
T/C [13]: 95 % of control
T/C [10]: 91 % of control
T/C (dose: 400.0 mg/kg/injection, schedule: Q01DX009 (ip), vehicle: saline with Tween-80): 95 % of control
T/C [11]: 104 % of control

ClC1C2c3ccccc3C(C1Cl)[n+]1ccccc12 (stereo not given)
T/C (dose: 8.75 mg/kg/injection, schedule: Q01DX009 (ip), vehicle: Klucel (hydroxypropylcellulose) (HPC)): 100 % of control
T/C (dose: 12.5 mg/kg/injection, schedule: Q04DX003 (ip), vehicle: Klucel (hydroxypropylcellulose) (HPC)): 100 % of control
T/C (dose: 17.5 mg/kg/injection, schedule: Q01DX009 (ip), vehicle: Klucel (hydroxypropylcellulose) (HPC)): 100 % of control
T/C [14]: 95 % of control

COc1cccc2c1C(=O)c1c(O)c3c(c(O)c1C2=O)C[C@@](O)(/C(C)=N\NC=O)C[C@@H]3OC1CC(N)C(O)C(C)O1 (stereo not given in full)
T/C (dose: 1.0 mg/kg/injection, schedule: Q01DX009 (ip), vehicle: saline): 96 % of control
T/C (dose: 2.0 mg/kg/injection, schedule: Q01DX009 (ip), vehicle: saline): 107 % of control
T/C (dose: 16.0 mg/kg/injection, schedule: Q01DX009 (ip), vehicle: saline): 180 % of control

COC(=O)C1(C(=O)OC)C2CC(C)=C(C)CC21 (stereo not given)
T/C (dose: 150.0 mg/kg/injection, schedule: Q04DX003 (ip), vehicle: saline): 95 % of control
T/C (dose: 300.0 mg/kg/injection, schedule: Q04DX003 (ip), vehicle: saline): 95 % of control

COc1cccc2c1C(=O)c1c(O)c3c(c(O)c1C2=O)C[C@@](O)(/C(C)=N/NC(=O)c1ccc(O)cc1)C[C@@H]3OC1CC(N)C(O)C(C)O1 (stereo not given in full)
T/C (dose: 0.25 mg/kg/injection, schedule: Q01DX009 (ip), vehicle: water): 120 % of control
T/C (dose: 1.0 mg/kg/injection, schedule: Q01DX009 (ip), vehicle: water): 164 % of control and 223 % of control
T/C (dose: 2.0 mg/kg/injection, schedule: Q01DX009 (ip), vehicle: water): 156 % of control and 207 % of control
T/C (dose: 4.0 mg/kg/injection, schedule: Q01DX009 (ip), vehicle: water): 224 % of control and 225 % of control
T/C (dose: 8.0 mg/kg/injection, schedule: Q01DX009 (ip), vehicle: water): 245 % of control

CCOC1CC(C)C(C=O)C(C#N)(C#N)C1(C#N)C#N (stereo not given)
T/C (dose: 12.5 mg/kg/injection, schedule: Q01DX001 (ip), vehicle: saline with Tween-80): 100 % of control
T/C (dose: 25.0 mg/kg/injection, schedule: Q01DX001 (ip), vehicle: saline with Tween-80): 109 % of control
T/C (dose: 50.0 mg/kg/injection, schedule: Q01DX001 (ip), vehicle: saline with Tween-80): 106 % of control

CN1C(=O)C(C2(C3C(=O)N(C)C(=O)N(C)C3=O)C(=O)N(C)C(=O)N(C)C2=O)C(=O)N(C)C1=O
T/C [3]: 108 % of control
T/C [6]: 104 % of control
T/C [8]: 102 % of control

CCCCCCCCC(=O)c1c(OC)oc(C=O)cc1=O
T/C (dose: 2.34 mg/kg/injection, schedule: Q01DX009 (ip), vehicle: Klucel (hydroxypropylcellulose) (HPC)): 96 % of control
T/C (dose: 4.69 mg/kg/injection, schedule: Q01DX009 (ip), vehicle: Klucel (hydroxypropylcellulose) (HPC)): 112 % of control and 118 % of control
T/C (dose: 9.38 mg/kg/injection, schedule: Q01DX009 (ip), vehicle: Klucel (hydroxypropylcellulose) (HPC)): 104 % of control and 108 % of control
T/C (dose: 18.7 mg/kg/injection, schedule: Q01DX009 (ip), vehicle: Klucel (hydroxypropylcellulose) (HPC)): 105 % of control
T/C (dose: 18.75 mg/kg/injection, schedule: Q01DX009 (ip), vehicle: Klucel (hydroxypropylcellulose) (HPC)): 96 % of control
T/C (dose: 37.5 mg/kg/injection, schedule: Q01DX009 (ip), vehicle: Klucel (hydroxypropylcellulose) (HPC)): 93 % of control and 114 % of control and 121 % of control

CCCCNC(=O)OC
T/C [2]: 100 % of control
T/C [15]: 100 % of control
T/C [4]: 100 % of control
T/C [16]: 95 % of control
T/C [17]: 115 % of control

C1CCN(CC2CCCCN2)CC1 (stereo not given)
T/C [1]: 100 % of control
T/C [14]: 105 % of control
T/C [2]: 100 % of control
T/C [15]: 100 % of control
T/C [4]: 90 % of control
T/C [16]: 110 % of control

CC1(C)COCN1CN1COCC1(C)C
T/C (dose: 50.0 mg/kg/injection, schedule: Q04DX003 (ip), vehicle: saline): 150 % of control
T/C (dose: 100.0 mg/kg/injection, schedule: Q04DX003 (ip), vehicle: saline): 155 % of control

O=C1c2ccccc2S(=O)(=O)N1CCN1C(=O)c2ccccc2S1(=O)=O
T/C [4]: 100 % of control
T/C [16]: 95 % of control
T/C [7]: 100 % of control
T/C [17]: 100 % of control
T/C (dose: 400.0 mg/kg/injection, schedule: Q01DX009 (ip), vehicle: Klucel (hydroxypropylcellulose) (HPC)): 90 % of control
T/C (dose: 400.0 mg/kg/injection, schedule: Q04DX003 (ip), vehicle: Klucel (hydroxypropylcellulose) (HPC)): 100 % of control
